Laboratory results from US20080200393A1, “Method and Composition For Treating Angiogenesis and For Preventing Cancer Progression and Metastasis Comprising a Prostate Secretory Protein (Psp94) Family Member” (Ambrillia Biopharma Inc., priority 2004, published 2008).
Where no end group is shown, it is not given here.

Assays:
[1] = test system: proMMP-2; assay: Gelatin zymography of HUVEC conditioned media; type: cell-based, Human
Protocol: Zymography. Zymography is a technique generally used to analyze the activity of matrix metalloproteinases (MMPs) in biological samples. It involves the electrophoretic separation of proteins under denaturing (Sodium Dodecyl Sulfate (SDS)) but non-reducing conditions through a polyacrylamide gel containing gelatin (for example, 10% gel containing 1 mg/ml gelatin for MMP-9 and MMP-2 assays). The resolved proteins are re-natured by exchanging SDS with a non-ionic detergent such as Triton X-100 and the gel is incubated in an incubation buffer for activation of MMP-2 and MMP-9 (for example at 37° C. for 18 hrs). The gel is stained with Coomassie blue and the MMP-2 and MMP-9 bands may be visualized as clear bands against a blue background (i.e., the MMPs degrade the gelatin and are visualized as clear bands; pro MMP-2 is 68 kDa and pro-MMP-9 is 92 kDa). These bands can be quantified using densitometry. For example, prior to stimulation, quiescent HUVEC were serum-starved for 16 h in the presence or absence of PCK3145 or PD98059 and then stimulated with VEGF. The conditioned media were collected 24 h after stimulation, and clarified by centrifugation. Identical volume of conditioned media were mixed with non reducing Laemmli sample buffer and subjected to 7.5% SDS-polyacrylamide gels containing 1 mg/ml gelatin (Sigma). The gels were then incubated for 30 min at room temperature twice in 2.5% (v/v) Triton X-100 and rinsed five times in doubly distilled water. The gels were incubated at 37° C. for a further 18 h in 200 mM NaCl/5 mM CaCl2/0.02% (v/v) Brij-35/50 mM Tris/HCl buffer (pH 7.6), then stained with 0.1% Coomassie Brilliant Blue R-250, followed by destaining in 10% (v/v) acetic acid/30% (v/v) methanol in water. Gelatinolytic activity was detected as unstained bands on a blue background.
The effect of the PCK3145 derivative (SEQ ID NO.:7) on MMP extracellular levels was thus assessed by gelatin-zymography in the conditioned media of serum-starved HUVEC. After 16 hours of starvation, HUVEC were stimulated with VEGF in the presence or not of the PCK3145 derivative. […]

[2] = test system: MT1-MMP; assay: MT1-MMP expression in U-87 cells; type: cell-based; conditions: 300 ug/ml
[3] = test system: ERK; assay: Induced ERK phosphorylation in HUVEC (Western blot); type: cell-based, Human
Protocol: Cell culture. Human umbilical vein endothelial cells (HUVEC) and pulmonary aortic smooth muscle cells (PASMC) were obtained from Clonetics and maintained in endothelial cell basal medium-2 (EBM-2; Clonetics) and smooth muscle medium-2 (SmGM-2; Clonetics), respectively. Cells were cultured at 37° C. under a humidified atmosphere containing 5% CO2. For experimental purposes, cells were plated in 8 100-mm plastic dishes at 5,000 cells/cm^2 and were grown to confluence before overnight serum starvation. Cells were treated with vehicle or with a PCK3145 derivative diluted in 0.1 N NaOH, and stimulated with 50-100 ng/ml VEGF or PDGF, with 10 ng/ml of bFGF (basic fibroblast growth factor) or with 1 μM S1P (sphingosine-1-phosphate).
Immunoprecipitation and immunoblotting procedures. After treatment, cells were washed once with phosphate-buffered saline (PBS) containing 1 mM sodium orthovanadate and were incubated in the same medium for 1 h at 4° C. The cells were solubilized on ice in lysis buffer (150 mM NaCl, 10 mM Tris-HCl, pH 7.4, 1 mM EDTA, 1 mM EGTA, 0.5% Nonidet P-40, 1% Triton X-100) containing 1 mM sodium orthovanadate. The cells were then scraped from the culture dishes and the resulting lysates were clarified by centrifugation at 10,000 g for 10 min; Protein concentrations were determined using the micro bicinchoninic acid method (Pierce). For immunoprecipitation studies, lysates were clarified by a 1 h incubation at 4° C. with a mixture of Protein A/Protein G Sepharose beads. After removal of the Sepharose beads by low-speed centrifugation, identical amounts of protein (200 μg) from each sample were transferred to fresh tubes and incubated in lysis buffer overnight at 4° C. in the presence of 2 μg/ml of specific antibodies. Immunocomplexes were collected by incubating the mixture with 25 μl (50% suspension) of Protein A- (rabbit primary antibody) or Protein G- (mouse primary antibody) Sepharose beads, for 2 h. Nonspecifically-bound material was removed by washing the beads three times in 1 ml of lysis buffer containing 1 mM sodium orthovanadate, and bound material was solubilized in 25 μl of two-fold concentrated Laemmli sample buffer (125 mM Tris-HCl (pH 6.8), 20% glycerol, 4% SDS, 10% β-mercaptoethanol, and 0.00125% bromphenol blue), boiled 5 min, and resolved by SDS-PAGE. The proteins were transferred onto polyvinylidene difluoride (PVDF) membranes, blocked 1 h at room temperature with Tris-buffered saline/Tween 20 (147 mM NaCl, 20 mM Tris/HCl, pH 7.5, and 0.1% Tween 20) containing 2% bovine serum albumin and incubated overnight at 4° C. with primary antibody. […] The immunoreactive bands were quantified by scanning densitometry (Molecular Dynamics).
VEGF is a strong activator of ERKs (Extracellular-signal-Regulated protein Kinases) 1 and 2 via VEGF receptor 2. In order to test the ability of the PCK3145 derivative in potentially antagonizing VEGF-mediated ERK phosphorylation, serum-starved quiescent endothelial cells (HUVEC) were incubated with vehicle (phosphate-buffered saline (PBS) pH 7.4) or PCK3145 derivative (300 μg/ml) for 24 h and then stimulated with VEGF, bFGF (basic Fibroblast Growth Factor) or S1P (sphingosine-1-phosphate). Cells were washed with PBS containing NaF/Na3VO4 and incubated in the same medium buffer for 1 h at 4° C. The cells were scraped from the culture dishes and the resulting lysates clarified by centrifugation. Western blotting and immunodetection using anti-phosphoERK and anti-ERK antibodies was then performed.

[4] = test system: RhoA; assay: RhoA gene and protein expression in U-87 cells (Western blot, RT-PCR); type: cell-based; conditions: U-87, 300 ug/ml, 48 hrs
Protocol: Specific manipulation of the GTPase Rho activity can be used to suppress or enhance the organizational behaviour of endothelial cells as well as it can restrict cancer cells proliferation. In particular, RhoA mediates cell contractility by organizing actin filaments which consequently regulates cell migration. […] Tests were carried out in order to determine whether the PCK3145 derivative affected RhoA gene and protein expression. U-87 cells were either treated with the PCK3145 derivative (300 ug/ml, 48 hrs). Results of this experiment confirm that the PCK3145 derivative induced endogenous RhoA protein expression in U-87 cells as assessed by Western blotting (FIG. 11A, FIG. 11C).

EWQTDNCETCTCYET (cysteine pairing not given here) [PCK3145 derivative, PCK3145 derivative with acetylaminomethyl groups on the three cysteines]
inhibition of VEGF-induced proMMP-2 secretion ([1]; HUVEC, 300 μg/ml): approximately 50% | downregulation of basal proMMP-2 levels in the extracellular media ([1]; serum-starved HUVEC, 24 hours treatment): approximately 35% | MT1-MMP expression [2]: slight increase | extent of ERK phosphorylation by VEGF, dose-response [3]: gradually inhibit | ERK phosphorylation induced by S1P ([3]; 300 μg/ml, 24 h): not that induced by bFGF or S1P | ERK phosphorylation induced by VEGF ([3]; 300 μg/ml, 24 h): specific inhibitory effect | total amount of ERK ([3]; 300 μg/ml, 24 h): unaffected | VEGF-induced ERK phosphorylation, time-course ([3]; 3 and 24 hrs): necessity of a long term action | RhoA gene expression (RT-PCR) [4]: paralleled that of its gene expression | endogenous RhoA protein expression (Western blotting) [4]: induced
